The values that follow come from patent US8435976B2, “4-substituted pyridin-3-yl-carboxamide compounds and methods of use” (F. Hoffmann-La Roche, priority 2009, dated 2013).

The target in one experiment is T1, PIM1 (Homo sapiens, UniProt P11309).
T1 construct: made in house
As to the kind of experiment: Pim-1 kinase enzymatic assay (Caliper LC3000, FAM-Pimtide substrate). The format is biochemical. Conditions: 20 pM PIM1, 10 μM ATP, 90 minutes; read-out: PIM1 LC3K (Ki). How it is done: (§1) Reaction Buffer contained 10 mM HEPES, pH 7.2, 10 mM MgCl2, 0.01% Tween 20, 2 mM DTT.
(§2) PIM reactions were carried out in a final volume of 10 μL per well in a 384-well plate. […] The separation of product and substrate was optimized by choosing voltages and pressure using Caliper's Optimizer software (Hopkinton, Mass.). The separation conditions used a downstream voltage of −500V, an upstream voltage of −2150V, and a screening pressure of −1.2 psi. […] Substrate conversion was calculated from the electrophoregram using HTS Well Analyzer software (Caliper Life Sciences, Hopkinton, Mass.). Ki values for the test compound were calculated.

In a further experiment the target is T2, PIM2 (Homo sapiens, UniProt Q9P1W9).
T2 construct: made in house
T2 sequence (Q9P1W9 whole entry): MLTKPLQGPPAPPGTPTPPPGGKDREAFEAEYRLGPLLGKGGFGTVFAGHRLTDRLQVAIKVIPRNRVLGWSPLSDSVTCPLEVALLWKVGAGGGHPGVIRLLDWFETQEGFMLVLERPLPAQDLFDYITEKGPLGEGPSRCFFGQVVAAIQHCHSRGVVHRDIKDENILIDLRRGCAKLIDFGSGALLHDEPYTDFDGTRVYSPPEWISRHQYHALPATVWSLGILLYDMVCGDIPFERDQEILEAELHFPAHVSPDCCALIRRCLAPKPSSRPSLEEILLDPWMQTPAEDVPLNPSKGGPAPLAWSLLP
As to the kind of experiment: Pim-2 kinase enzymatic assay (Caliper LC3000, FAM-Pimtide substrate). The experiment is classed as biochemical. Conditions: 50 pM PIM2, 10 μM ATP, 90 minutes; read-out: PIM2 LC3K (Ki). How it is done: as §1, §2

Another experiment concerns the target T3, PIM3 (Homo sapiens, UniProt Q86V86).
T3 construct: made in house
The experiment is described as follows: Pim-3 kinase enzymatic assay (Caliper LC3000, FAM-Pimtide substrate). The format is biochemical. The settings on record: 55 pM PIM3, 10 μM ATP, 90 minutes; read-out: PIM3 LC3K (Ki). The procedure: as §1, §2

A further experiment deals with BaF3 PIM1 cells (Homo sapiens, UniProt P11309). As to the kind of experiment: BaF3 PIM1 cell proliferation (Cell Titer Glo). The experiment is classed as cell-based. Conditions: incubated overnight; read-out: Prolif BaF3_PIM1 (IC50). How it is done:
(§3) BaF3 parental line was obtained from the DSMZ repository. BaF3 lines transfected with PIM1 or PIM2 were generated. Mouse IL-3 was purchased from R&D Systems. G418 was purchased from Clontech. Media for BaF3 parental line contained RPMI, 10% FBS, 2 mM L-Glutamine, 2 ng/mL mIL-3. Media for BaF3 PIM1 & 2 lines contained RPMI, 10% FBS, 2 mM L-Glutamine, […]. Media for MM1.S line contained RPMI, 10% FBS, 2 mM L-Glutamine.
(§4) BaF3 parental cells, BaF3 PIM1 cells, BaF3 PIM2 cells, and MM1.S cells were seeded at 2 k/well, 5 k/well, 5 k/well, and 10 k/well respectively, in a 384-well plate, at 45 μL/well. Test compound was added at 5 μL/well. BaF3 cells (parental and transfected) were incubated overnight, while MM1.S cells were incubated for 72 hours at 37° C., 5% CO2. Cell Titer Glo Reagent (Promega) was added at 50 μL/well, the plates were incubated for 30 minutes, and their luminescence read on an HT Analyst. IC50/EC50 values for the test compound were calculated.
Background: ATP-based viability assays read luminescence as a measure of living cells.

In another experiment the target is BaF3 PIM2 cells (Homo sapiens, UniProt Q9P1W9). The experiment is described as follows: BaF3 PIM2 cell proliferation (Cell Titer Glo). The format is cell-based. The settings on record: incubated overnight; read-out: Prolif BaF3_PIM2 (IC50). How it is done:
as §3, §4

Another experiment concerns MM1.S cells. The experiment is described as follows: MM1.S cell proliferation, 72 hours (Cell Titer Glo). The format is cell-based. The settings on record: Homo sapiens, 72 hours, read-out: Prolif MM1S ATP (EC50). How it is done: as §3, §4

The structures appear in SMILES notation.

BaF3 PIM2 cells, sequence (Q9P1W9 whole entry, change not shown): as the sequence (Q9P1W9 whole entry) above
BaF3 PIM1 cells, sequence (P11309 whole entry, change not shown): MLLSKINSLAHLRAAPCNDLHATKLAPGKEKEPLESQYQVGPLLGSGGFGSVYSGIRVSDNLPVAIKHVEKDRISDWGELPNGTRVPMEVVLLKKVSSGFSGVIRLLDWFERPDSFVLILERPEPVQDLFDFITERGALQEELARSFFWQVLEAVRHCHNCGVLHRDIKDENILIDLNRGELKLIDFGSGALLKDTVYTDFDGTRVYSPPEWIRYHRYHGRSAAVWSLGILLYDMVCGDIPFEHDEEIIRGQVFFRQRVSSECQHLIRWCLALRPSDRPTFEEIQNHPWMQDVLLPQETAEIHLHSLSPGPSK
T1 sequence (P11309 whole entry): as the sequence (P11309 whole entry, change not shown) above

A word on the Ki: it is a measure of affinity in units of concentration, obtained from inhibition or displacement. For orientation: EC50 means the concentration at which the effect is half-maximal. Consider `CC(C)(C)c1nc(C(=O)Nc2cnccc2N2CCC[C@H](N)C2)c(N)s1` [Example 16, (S)-5-amino-N-(4-(3-aminopiperidin-1-yl)pyridin-3-yl)-2-tert-butylthiazole-4-carboxamide], for which the inhibition constant (Ki) on PIM1 was 1.56 nM; at PIM2, 3.83 nM; at PIM3 it was 2.26 nM. Further, the GI50 was 926 nM at BaF3 PIM1 cells and more than 20000 nM on BaF3 PIM2 cells. The EC50 with MM1.S cells fell in the range of 10000 to 20000 nM.
For `Nc1sc(-c2ccccc2Cl)nc1C(=O)Nc1cnccc1N1CCC[C@H](N)C1` [Example 2, (S)-5-amino-N-(4-(3-aminopiperidin-1-yl)pyridin-3-yl)-2-(2-chlorophenyl)thiazole-4-carboxamide], the results for the Ki at PIM1, on PIM2 and on PIM3 were 0.0355 nM, 0.126 nM and 0.0205 nM, respectively. The GI50 came to 67.2 nM on BaF3 PIM1 cells and 2000 nM at BaF3 PIM2 cells. Further, in the experiment on MM1.S cells, the half-maximal effective concentration (EC50) was 218 nM.
Regarding `Nc1sc(-c2ccccc2F)nc1C(=O)Nc1cnccc1N1C[C@@H](N)C[C@@H](F)C1` [Example 62, 5-amino-N-(4-((3S,5R)-3-amino-5-fluoropiperidin-1-yl)pyridin-3-yl)-2-(2-fluorophenyl)thiazole-4-carboxamide], the Ki at PIM1 turned out to be 1.34 nM; on PIM2 it was 8.87 nM; on PIM3 it was 0.326 nM. The GI50 at BaF3 PIM1 cells is 6000 nM; at BaF3 PIM2 cells, 10400 nM. Besides, the EC50 with MM1.S cells is 364 nM.
Take `Nc1sc(-c2c(F)cccc2F)nc1C(=O)Nc1cnccc1N1CCC[C@H](N)C1` (single isomer, unassigned) [Example 25]: the GI50 at BaF3 PIM1 cells came out at 1500 nM. For the same compound, the concentration for a half-maximal effect (EC50) with MM1.S cells amounted to 1500 nM.
For the compound `Nc1sc(-c2cn3ccccc3n2)nc1C(=O)Nc1cnccc1N1CCC[C@H](N)C1` [Example 19, (S)-5-amino-N-(4-(3-aminopiperidin-1-yl)pyridin-3-yl)-2-(imidazo[1,2-a]pyridin-2-yl)thiazole-4-carboxamide], the Ki at PIM1 turned out to be 0.735 nM; on PIM2 it was 3.55 nM. Also, the GI50 at BaF3 PIM1 cells is 581 nM; on BaF3 PIM2 cells, more than 20000 nM. The EC50 in the experiment on MM1.S cells came out at 3200 nM.
On to `Nc1sc(C2CCNC2)nc1C(=O)Nc1cnccc1N1CCCC(N)C1` (stereo not drawn) [Example 64, 5-amino-N-(4-(3-aminopiperidin-1-yl)pyridin-3-yl)-2-(pyrrolidin-3-yl)thiazole-4-carboxamide], for which the Ki came to 21.6 nM on PIM1, 57.7 nM on PIM2 and 18 nM at PIM3.
For `Nc1sc(Cc2ccccc2)nc1C(=O)Nc1cnccc1N1CCC[C@H](NC(=O)C(F)(F)F)C1` [Example 49, (S)-5-amino-2-benzyl-N-(4-(3-(2,2,2-trifluoroacetamido)piperidin-1-yl)pyridin-3-yl)thiazole-4-carboxamide], the Ki stood at 29.7 nM at PIM1, 259 nM on PIM2 and 91.2 nM on PIM3. For the same compound, at BaF3 PIM1 cells, the GI50 is 4000 nM. Further, the concentration giving a half-maximal response (EC50) in the experiment with MM1.S cells was more than 20000 nM.
In the case of `Nc1sc(-c2c(F)cccc2Cl)nc1C(=O)Nc1cnccc1N1CCC[C@H](N)C1` [Example 55, (S)-5-amino-N-(4-(3-aminopiperidin-1-yl)pyridin-3-yl)-2-(2-chloro-6-fluorophenyl)thiazole-4-carboxamide], the inhibition constant Ki at PIM1 was 0.032 nM; on PIM2, 0.12 nM; at PIM3, 0.028 nM. In addition, the EC50 with MM1.S cells was found to be 158 nM.
On to `Nc1sc(-c2cccc(Cl)c2)nc1C(=O)Nc1cnccc1N1CCC[C@H](N)C1` [Example 13, (S)-5-amino-N-(4-(3-aminopiperidin-1-yl)pyridin-3-yl)-2-(3-chlorophenyl)thiazole-4-carboxamide], for which the Ki on PIM1 stood at 0.102 nM; at PIM2 it was 0.403 nM; at PIM3, 0.04 nM. In the experiment on MM1.S cells, the EC50 was more than 20000 nM.
Take `CC(C)c1nc(C(=O)Nc2cnccc2N2CCC[C@H](N)C2)c(N)s1` [Example 36, (S)-5-amino-N-(4-(3-aminopiperidin-1-yl)pyridin-3-yl)-2-isopropylthiazole-4-carboxamide]: the Ki at PIM1 was 2.18 nM; at PIM2, 8.69 nM; at PIM3, 3.77 nM. Moreover, the GI50 at BaF3 PIM1 cells came out at 562 nM. For the same compound, in the experiment with MM1.S cells, the half-maximal effective concentration (EC50) amounted to 14000 nM.
`Nc1sc(-c2ccncc2)nc1C(=O)Nc1cnccc1N1CCC[C@H](N)C1` [Example 33, (S)-5-amino-N-(4-(3-aminopiperidin-1-yl)pyridin-3-yl)-2-(pyridin-4-yl)thiazole-4-carboxamide]: the results for the Ki on PIM1 and at PIM2 were 0.6 nM and 2.51 nM, respectively. In addition, the values for the GI50 on BaF3 PIM1 cells and at BaF3 PIM2 cells were 410 nM and 13300 nM, respectively. For the same compound, the EC50 in the experiment on MM1.S cells was 3500 nM.
In the case of `Nc1sc(Cc2ccccc2)nc1C(=O)Nc1cnccc1N1CCC[C@H](N)C1` [Example 38, (S)-5-amino-N-(4-(3-aminopiperidin-1-yl)pyridin-3-yl)-2-benzylthiazole-4-carboxamide], the Ki at PIM1 is 3.73 nM; on PIM2 it was 33.8 nM; on PIM3 it was 12.7 nM. In addition, the GI50 on BaF3 PIM1 cells is 3200 nM. The EC50 in the experiment with MM1.S cells stood at 11900 nM.
`Nc1sc(C2CCCCC2)nc1C(=O)Nc1cnccc1N1CCC[C@H](N)C1` [Example 37, (S)-5-amino-N-(4-(3-aminopiperidin-1-yl)pyridin-3-yl)-2-cyclohexylthiazole-4-carboxamide]: the results for the Ki at PIM1 and at PIM2 were 1.14 nM and 0.635 nM, respectively. In addition, at BaF3 PIM1 cells, the GI50 was 2200 nM. For the same compound, the EC50 in the experiment on MM1.S cells stood at 2100 nM.
Consider `Nc1[nH]c(-c2ccccc2)nc1C(=O)Nc1cnccc1N1CCC[C@H](N)C1` [Example 20, (S)-5-amino-N-(4-(3-aminopiperidin-1-yl)pyridin-3-yl)-2-phenyl-1H-imidazole-4-carboxamide], for which the values for the Ki at PIM1, on PIM2 and on PIM3 were 1200 nM, 4900 nM and 496 nM, respectively.
`N[C@H]1CCCN(c2ccncc2NC(=O)c2csc(-c3ccccc3)n2)C1` [Example 48, (S)-N-(4-(3-aminopiperidin-1-yl)pyridin-3-yl)-2-phenylthiazole-4-carboxamide]: the values for the Ki at PIM1, at PIM2 and at PIM3 were 1.33 nM, 6.84 nM and 0.487 nM, respectively. For the same compound, at BaF3 PIM1 cells, the GI50 was 1400 nM. Further, in the experiment on MM1.S cells, the EC50 came out at 8000 nM.
`Nc1scnc1C(=O)Nc1cnccc1N1CCC[C@H](N)C1` [Example 10, (S)-5-amino-N-(4-(3-aminopiperidin-1-yl)pyridin-3-yl)thiazole-4-carboxamide]: the Ki stood at 36.7 nM at PIM1, 51.2 nM at PIM2 and 24 nM at PIM3. Further, the GI50 at BaF3 PIM1 cells turned out to be 3600 nM. The 50% effective concentration (EC50) in the experiment on MM1.S cells is more than 20000 nM.
Turning to `N[C@H]1CCCN(c2ccncc2NC(=O)c2csc(-c3c(F)cccc3F)n2)C1` [Example 46, (S)-N-(4-(3-aminopiperidin-1-yl)pyridin-3-yl)-2-(2,6-difluorophenyl)thiazole-4-carboxamide], the concentration for a half-maximal effect (EC50) with MM1.S cells is 4800 nM.
Regarding `Nc1sc(-c2ccccc2)nc1C(=O)Nc1cccnc1` [Example 14, 5-amino-2-phenyl-N-(pyridin-3-yl)thiazole-4-carboxamide], the Ki at PIM1 was 36.7 nM; on PIM2, 195 nM; on PIM3 it was 9.25 nM. For the same compound, the concentration giving a half-maximal response (EC50) in the experiment on MM1.S cells is more than 20000 nM.
